The numbers were not newly measured in patent EP2732812A1, “Pramipexole retard tablet formulation” (Aristo Pharma GmbH, priority 2012, dated 2014), which cites them from elsewhere.

Molecules are shown by their SMILES. Counter-ions that a name gives are not always drawn. Some results are limits rather than exact numbers.

Regarding `CCCN[C@H]1CCc2nc(N)sc2C1` [Pramipexoldihydrochlorid Monohydrat], the “Löslichkeit In Puffer” value (buffer, pH-Wert von 2,0 bis 7,4) is reported as more than 10 mg/mL. Further, the “Löslichkeit In Wasser” value (in water) is more than 20 mg/mL.
